# Biological target: recombinant, human, C-terminally-His tagged NAMPT (Homo sapiens, UniProt P43490)
# Experiment: Time-Resolved Fluorescence Resonance Energy Transfer (TR-FRET) binding assay of NAMPT
# Conditions: 6.8 nM NAMPT, 200 nM probe (Oregon Green 488-conjugated APO866), 2-3 hours
# Description: Time-Resolved Fluorescence Resonance Energy Transfer (TR-FRET) Binding Assay of NAMPT
# Plates were read with Envision (Laser Lantha low volume protocol) after 2 to 3 hours.
# recombinant, human, C-terminally-His tagged NAMPT, sequence (P43490 whole entry): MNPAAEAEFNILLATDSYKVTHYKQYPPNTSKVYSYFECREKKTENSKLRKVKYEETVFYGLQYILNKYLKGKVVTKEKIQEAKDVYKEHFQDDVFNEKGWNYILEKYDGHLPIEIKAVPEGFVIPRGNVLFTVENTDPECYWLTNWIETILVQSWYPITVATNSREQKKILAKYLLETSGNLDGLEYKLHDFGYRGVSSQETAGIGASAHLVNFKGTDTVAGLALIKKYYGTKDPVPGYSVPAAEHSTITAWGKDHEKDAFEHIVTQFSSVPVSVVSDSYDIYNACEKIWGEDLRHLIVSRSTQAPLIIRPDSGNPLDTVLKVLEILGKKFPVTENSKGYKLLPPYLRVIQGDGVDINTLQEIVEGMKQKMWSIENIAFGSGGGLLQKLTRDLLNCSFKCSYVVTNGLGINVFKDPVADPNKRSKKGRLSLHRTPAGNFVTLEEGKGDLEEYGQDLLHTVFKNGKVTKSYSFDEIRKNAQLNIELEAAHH
row,SMILES,IC50 [nM]
1,"O=C(NCCN1CCCCCC1)c1ccc(NC(=O)N2Cc3ccccc3C2)cc1 [Example 1, N-(4-{[2-(azepan-1-yl)ethyl]carbamoyl}phenyl)-1,3-dihydro-2H-isoindole-2-carboxamide]",55.6
2,"O=C(NCCN1CCNC1=O)c1ccc(NC(=O)N2Cc3ccccc3C2)cc1 [Example 3, N-(4-{[2-(2-oxoimidazolidin-1-yl)ethyl]carbamoyl}phenyl)-1,3-dihydro-2H-isoindole-2-carboxamide]",32.6
3,"O=C(NCCC1CCCCO1)c1ccc(NC(=O)N2Cc3ccccc3C2)cc1 (stereo not drawn) [Example 4, N-(4-{[2-(tetrahydro-2H-pyran-2-yl)ethyl]carbamoyl}phenyl)-1,3-dihydro-2H-isoindole-2-carboxamide]",4.08
4,"CC1(CNC(=O)c2ccc(NC(=O)N3Cc4ccccc4C3)cc2)CCCO1 (stereo not drawn) [Example 5, N-(4-{[(2-methyltetrahydrofuran-2-yl)methyl]carbamoyl}phenyl)-1,3-dihydro-2H-isoindole-2-carboxamide]",6.92
5,"O=C(NCC1COC2(CCNCC2)C1)c1ccc(NC(=O)N2Cc3ccccc3C2)cc1 (stereo not drawn) [Example 7, N-{4-[(1-oxa-8-azaspiro[4.5]dec-3-ylmethyl)carbamoyl]phenyl}-1,3-dihydro-2H-isoindole-2-carboxamide]",7.39
6,"O=C(Nc1ccc(C(=O)N2CCC3(CC2)COC3)nn1)N1Cc2ccccc2C1 [Example 8, N-[6-(2-oxa-7-azaspiro[3.5]non-7-ylcarbonyl)pyridazin-3-yl]-1,3-dihydro-2H-isoindole-2-carboxamide]",92.2
7,"O=C(Nc1ccc(C(=O)N2CC3COCC3C2)nn1)N1Cc2ccccc2C1 (stereo not drawn) [Example 9, N-[6-(tetrahydro-1H-furo[3,4-c]pyrrol-5(3H)-ylcarbonyl)pyridazin-3-yl]-1,3-dihydro-2H-isoindole-2-carboxamide]",442
8,"O=C(Nc1ccc(C(=O)N2CCC3OCCC3C2)nn1)N1Cc2ccccc2C1 (stereo not drawn) [Example 10, N-[6-(hexahydrofuro[3,2-c]pyridin-5(4H)-ylcarbonyl)pyridazin-3-yl]-1,3-dihydro-2H-isoindole-2-carboxamide]",952
9,"O=C(Nc1ccc(C(=O)N2CC3CCOC3C2)nn1)N1Cc2ccccc2C1 (stereo not drawn) [Example 11, N-[6-(hexahydro-5H-furo[2,3-c]pyrrol-5-ylcarbonyl)pyridazin-3-yl]-1,3-dihydro-2H-isoindole-2-carboxamide]",270
10,"O=C(Nc1ccc(C(=O)N2CCOC3(CCOC3)C2)nn1)N1Cc2ccccc2C1 (stereo not drawn) [Example 12, N-[6-(2,6-dioxa-9-azaspiro[4.5]dec-9-ylcarbonyl)pyridazin-3-yl]-1,3-dihydro-2H-isoindole-2-carboxamide]",2050
11,"O=C(Nc1ccc(C(=O)N2CC3(COC3)C2)nn1)N1Cc2ccccc2C1 [Example 13, N-[6-(2-oxa-6-azaspiro[3.3]hept-6-ylcarbonyl)pyridazin-3-yl]-1,3-dihydro-2H-isoindole-2-carboxamide]",626
12,"O=C(Nc1ccc(C(=O)N2CCCC3(COC3)C2)nn1)N1Cc2ccccc2C1 [Example 14, N-[6-(2-oxa-6-azaspiro[3.5]non-6-ylcarbonyl)pyridazin-3-yl]-1,3-dihydro-2H-isoindole-2-carboxamide]",885
13,"O=C(Nc1ccc(C(=O)N2CCC3(CCOC3)C2)nn1)N1Cc2ccccc2C1 (stereo not drawn) [Example 15, N-[6-(2-oxa-7-azaspiro[4.4]non-7-ylcarbonyl)pyridazin-3-yl]-1,3-dihydro-2H-isoindole-2-carboxamide]",578
14,"O=C(Nc1ccc(C(=O)N2CCC3(CNCCC3(F)F)C2)nn1)N1Cc2ccccc2C1 (stereo not drawn) [Example 16, N-{6-[(10,10-difluoro-2,7-diazaspiro[4.5]dec-2-yl)carbonyl]pyridazin-3-yl}-1,3-dihydro-2H-isoindole-2-carboxamide]",116
15,"N#CC1COC2(CCN(C(=O)c3ccc(NC(=O)N4Cc5ccccc5C4)nn3)CC2)C1 (stereo not drawn) [Example 17, N-{6-[(3-cyano-1-oxa-8-azaspiro[4.5]dec-8-yl)carbonyl]pyridazin-3-yl}-1,3-dihydro-2H-isoindole-2-carboxamide]",158
16,"O=C(Nc1ccc(C(=O)N2CC3(CCOCC3)C2)nn1)N1Cc2ccccc2C1 [Example 18, N-[6-(7-oxa-2-azaspiro[3.5]non-2-ylcarbonyl)pyridazin-3-yl]-1,3-dihydro-2H-isoindole-2-carboxamide]",388
17,"O=C(Nc1ccc(C(=O)N2CCC3(CCCO3)C2)nn1)N1Cc2ccccc2C1 (stereo not drawn) [Example 19, N-[6-(1-oxa-7-azaspiro[4.4]non-7-ylcarbonyl)pyridazin-3-yl]-1,3-dihydro-2H-isoindole-2-carboxamide]",394
18,"O=C(Nc1ccc(C(=O)N2CCC3(CNCCC3F)C2)nn1)N1Cc2ccccc2C1 (stereo not drawn) [Example 20, N-{6-[(10-fluoro-2,7-diazaspiro[4.5]dec-2-yl)carbonyl]pyridazin-3-yl}-1,3-dihydro-2H-isoindole-2-carboxamide]",406
19,"O=C(Nc1ccc(C(=O)N2CCC3(CCNCC3)CC2)nn1)N1Cc2ccccc2C1 [Example 21, N-[6-(3,9-diazaspiro[5.5]undec-3-ylcarbonyl)pyridazin-3-yl]-1,3-dihydro-2H-isoindole-2-carboxamide]",101

# The next lines start with the values.
row,IC50 [nM],SMILES
1,1270,"O=C(Nc1ccc(C(=O)N2CCCC3(CCNC3)C2)nn1)N1Cc2ccccc2C1 (stereo not drawn) [Example 22, N-[6-(2,7-diazaspiro[4.5]dec-7-ylcarbonyl)pyridazin-3-yl]-1,3-dihydro-2H-isoindole-2-carboxamide]"
2,140,"O=C(Nc1ccc(C(=O)N2CCC3(CCNC3)CC2)nn1)N1Cc2ccccc2C1 [Example 23, N-[6-(2,8-diazaspiro[4.5]dec-8-ylcarbonyl)pyridazin-3-yl]-1,3-dihydro-2H-isoindole-2-carboxamide]"
3,2880,"O=C(NC1CCC12CNC2)c1ccc(NC(=O)N2Cc3ccccc3C2)nn1 (stereo not drawn) [Example 25, N-[6-(2-azaspiro[3.3]hept-5-ylcarbamoyl)pyridazin-3-yl]-1,3-dihydro-2H-isoindole-2-carboxamide]"
4,2890,"O=C(NC1[C@H]2CNC[C@@H]12)c1ccc(NC(=O)N2Cc3ccccc3C2)nn1 (stereo partly drawn) [Example 26, N-{6-[(1R,5S)-3-azabicyclo[3.1.0]hex-6-ylcarbamoyl]pyridazin-3-yl}-1,3-dihydro-2H-isoindole-2-carboxamide]"
5,602,"O=C(NC[C@H]1CC2CNCCN2C1)c1ccc(NC(=O)N2Cc3ccccc3C2)nn1 (stereo partly drawn) [Example 27, N-(6-{[(7R)-octahydropyrrolo[1,2-a]pyrazin-7-ylmethyl]carbamoyl}pyridazin-3-yl)-1,3-dihydro-2H-isoindole-2-carboxamide]"
6,3150,"O=C(Nc1ccc(C(=O)N2CC3(CCCNC3)C2)nn1)N1Cc2ccccc2C1 [Example 28, N-[6-(2,6-diazaspiro[3.5]non-2-ylcarbonyl)pyridazin-3-yl]-1,3-dihydro-2H-isoindole-2-carboxamide]"
7,454,"O=C(Nc1ccc(C(=O)N2CC3(CCNCC3)C2)nn1)N1Cc2ccccc2C1 [Example 29, N-[6-(2,7-diazaspiro[3.5]non-2-ylcarbonyl)pyridazin-3-yl]-1,3-dihydro-2H-isoindole-2-carboxamide]"
8,7190,"O=C(Nc1ccc(C(=O)N2CCC3(CNC3)C2)nn1)N1Cc2ccccc2C1 [Example 30, N-[6-(2,6-diazaspiro[3.4]oct-6-ylcarbonyl)pyridazin-3-yl]-1,3-dihydro-2H-isoindole-2-carboxamide]"
9,253,"O=C(NCC1CCC2(CCNCC2)CO1)c1ccc(NC(=O)N2Cc3ccccc3C2)nn1 (stereo not drawn) [Example 31, N-{6-[(2-oxa-9-azaspiro[5.5]undec-3-ylmethyl)carbamoyl]pyridazin-3-yl}-1,3-dihydro-2H-isoindole-2-carboxamide]"
10,782,"O=C(NCC1CCC2(CCNCC2)O1)c1ccc(NC(=O)N2Cc3ccccc3C2)nn1 (stereo not drawn) [Example 32, N-{6-[(1-oxa-8-azaspiro[4.5]dec-2-ylmethyl)carbamoyl]pyridazin-3-yl}-1,3-dihydro-2H-isoindole-2-carboxamide]"
11,284,"O=C(NCC1COC2(CCNCC2)C1)c1ccc(NC(=O)N2Cc3ccccc3C2)nn1 (stereo not drawn) [Example 33, N-{6-[(1-oxa-8-azaspiro[4.5]dec-3-ylmethyl)carbamoyl]pyridazin-3-yl}-1,3-dihydro-2H-isoindole-2-carboxamide]"
12,218,"O=C(Nc1ccc(C(=O)N2CCC3(CC2)CNC3)nn1)N1Cc2ccccc2C1 [Example 34, N-[6-(2,7-diazaspiro[3.5]non-7-ylcarbonyl)pyridazin-3-yl]-1,3-dihydro-2H-isoindole-2-carboxamide]"
13,404,"O=C(Nc1ccc(C(=O)N2CCC3(CCNCC3)C2)nn1)N1Cc2ccccc2C1 [Example 35, N-[6-(2,8-diazaspiro[4.5]dec-2-ylcarbonyl)pyridazin-3-yl]-1,3-dihydro-2H-isoindole-2-carboxamide]"
14,791,"O=C(Nc1ccc(C(=O)N2CCC(C3CNC3)C2)nn1)N1Cc2ccccc2C1 (stereo not drawn) [Example 36, N-(6-{[3-(azetidin-3-yl)pyrrolidin-1-yl]carbonyl}pyridazin-3-yl)-1,3-dihydro-2H-isoindole-2-carboxamide]"
15,934,"O=C(NCc1nc2c([nH]1)CNCC2)c1ccc(NC(=O)N2Cc3ccccc3C2)nn1 [Example 37, N-{6-[(4,5,6,7-tetrahydro-3H-imidazo[4,5-c]pyridin-2-ylmethyl)carbamoyl]pyridazin-3-yl}-1,3-dihydro-2H-isoindole-2-carboxamide]"
16,869,"O=C(NC1COC2(CCNCC2)C1)c1ccc(NC(=O)N2Cc3ccccc3C2)nn1 (stereo not drawn) [Example 38, N-[6-(1-oxa-8-azaspiro[4.5]dec-3-ylcarbamoyl)pyridazin-3-yl]-1,3-dihydro-2H-isoindole-2-carboxamide]"
17,3260,"O=C(NCc1nnc2n1CCCNC2)c1ccc(NC(=O)N2Cc3ccccc3C2)nn1 [Example 39, N-{6-[(6,7,8,9-tetrahydro-5H-[1,2,4]triazolo[4,3-a][1,4]diazepin-3-ylmethyl)carbamoyl]pyridazin-3-yl}-1,3-dihydro-2H-isoindole-2-carboxamide]"

# — patent US20170253562A1, “Nampt Inhibitors” (AbbVie Inc., priority 2011, published 2017)
